Results published in patent publication US20240208896A1, “PRODRUGS OF KV7 CHANNEL OPENERS” (Xyzagen, Inc., priority 2021, published 2024).
Like-named read-outs stand apart in the source and are kept apart here.

Columns and labels:
[1] = 1000 ng/mL
Procedure: Plasma was collected by the biomaterial vendor and kept frozen at −20° C.
The samples were analyzed by HPLC separation and mass spectrometry detection for prodrug amount, relative to a baseline time 0 control sample. Triplicate samples were generated at each time point and the peak area response was averaged and converted to a percent of baseline control.

[2] = Acid and organic solution stability, HPLC-UV 250 nm; conditions: 5 mg/mL; for Degradation / conversion to ezogabine in solution: acidic solutions and organic solvents, up to 3 weeks
Procedure: An HPLC-UV Vis method was developed using 0.1% Formic acid in water as mobile phase A and 0.1% Formic acid in acetonitrile as mobile Phase B. A gradient method was developed ramping from 10% A to 90% B over 8 minutes and then returning to 10% A at 8.5 minutes on a 4.6×50 mm Zorbax C-18 column. Injections of 10 uL of stability solutions were injected for analyte detection.
[…] Aliquots were collected at serial time points and then diluted to a nominal concentration of 100 ug/mL for injection to the HPLC and 250 nm monitored by the diode array detector. Data at approximately 10 days is presented.
Aliquots were collected at serial time points and then diluted to a nominal concentration of 100 ug/mL for injection to the HPLC and 250 nm monitored by the diode array detector.
(§1) It was also evaluated at 2 N HCl at 37° C. Aliquots were collected at serial time points and then diluted to a nominal concentration of 100 ug/mL for injection to the HPLC and 250 nm monitored by the diode array detector.
as §1, §1, §1

[3] = test system: CCI model of neuropathic pain; assay: CCI model of neuropathic pain (pin prick, von Frey); assay type: in vivo, Sprague Dawley rat; conditions: CCI rats, 1 h after pretreatment
Procedure: Compound 3 was tested for reversal of mechanical hypersensitivity to the pin prick test for hindlimb paw withdraw and the von Frey hairs for gram force mechanical allodynia in the CCI model of neuropathic pain. Male Sprague Dawley rats (n=8/group) were tested for baseline sensitivity on Day 1 (ipsilateral and contralateral paws) and administered XYG-203 orally; 40 mg/kg on Day 1, 20 mg/kg Day 3, 10 mg/kg Day 5, 5 mg/kg Day 7, 1 mg/kg Day 10 and baseline on Day 12. Mechanical hypersensitivity was tested 1 h after pretreatment. Data (mean±SD) were analyzed with a repeated measures ANOVA with Dunnet's adjustment for multiple comparisons.

[4] = Rat PK at equimolar dose to Ezogabine (20 mg/kg) in 0.5% methylcellulose; conditions: for AUClast/D / Cmax/D: male cannulated rats, equimolar to Ezogabine 20 mg/kg, 0.5% methylcellulose, analyte the dosed prodrug
Procedure: (§2) Blood samples were collected at the same time points over 24 hours to generate a concentration time profile. Two male rats were dosed per group. Plasma samples were analyzed by LC/MS/MS and the resulting concentration time profiles and PK parameters are provided.
as §2, §2

[5] = Benchtop solvent stability exposed to light, HPLC-UV 230 nm, up to 7 days; assay type: physicochemical; conditions: for Stability in solvent: benchtop, exposed to light
Procedure: Compounds in solvent were left on the benchtop exposed to light for up to 7 days since it is known that Compound 1 will degrade with light within 3-7 days.
Stability was assessed by taking an aliquot from the solubility vials at each test day. A single replicate was injected for each test condition.
Samples were injected onto an HPLC system with an aqueous mobile phase and acetonitrile organic phase and compounds were separated on a C8 50×2 mm column. Wavelength 230 nm was monitored for absorption and integrated for peak area while the mass spectrometer was used to confirm mass. Samples were tested on Day 1 and on subsequent days through Day 7.

[6] = Solvent solubility assessment by visual inspection; assay type: physicochemical
Procedure: Compounds were weighed and placed into a 4 dram vials and solvents were added to the target concentration. Compounds were vortex and visually inspected for particulates and considered soluble if clear upon visual inspection with and without magnification. Solubility was reported as either greater than (>) or less than (<) from the prepared concentration. […] It was evaluated at 10 mg/mL in 0.1 N NaCl and was freely soluble. It was evaluate at 1 mg/mL in 0.1 N NaOH and 0.1 N Na2HPO4 and was freely soluble. In ethanol and methanol it was freely soluble at a concentration of 75 mg/mL. […] It was freely soluble at 75 mg/mL in methanol and ethanol. It was soluble at 1 mg/mL in 1N HCl.

[7] = Pharmacokinetics of ezogabine prodrugs in rat (IV, IM, PO); conditions: rat, in vivo, po
Procedure: Blood was diluted by 10% with these stabilizers.
Extraction of the molecules was conducted by taking a 50 uL aliquot of plasma and adding 200 uL of acetonitrile containing 200 ng/mL tolbutamide as the internal standard. Samples were precipitated in a 96 well plate, centrifuges and an aliquot transferred to a new plate, dried down under heat and nitrogen and then reconstituted in the initial mobile phase conditions of the LC-MS/MS method. […] A standard curve was prepared from 5000 ng/mL to 1 ng/mL for each analyte. Concentration data from the bioanalytical run was analyzed by Phoenix Winnonlin version 8 for noncompartmental PK analysis, plotting of concentration time curves and tabulation of PK parameters.
150 uL of blood were collected at predesignated time points. At completion of the study animals were asphyxiated by carbon dioxide gas and exsanguinated for euthanasia.

Human Kv7.2/7.3 = Human Kv7.2/7.3 (Homo sapiens, UniProt O43525+O43526); assay: In vitro screen of Kv7.2/7.3 voltage gated potassium channels (FluxOR, FLIPR); assay type: cell-based; conditions: Human Kv7.2/7.3 cells; FluxOR fluorescence; 0.03 to 30 μM
Human Kv7.2/7.3, sequence (O43526 whole entry): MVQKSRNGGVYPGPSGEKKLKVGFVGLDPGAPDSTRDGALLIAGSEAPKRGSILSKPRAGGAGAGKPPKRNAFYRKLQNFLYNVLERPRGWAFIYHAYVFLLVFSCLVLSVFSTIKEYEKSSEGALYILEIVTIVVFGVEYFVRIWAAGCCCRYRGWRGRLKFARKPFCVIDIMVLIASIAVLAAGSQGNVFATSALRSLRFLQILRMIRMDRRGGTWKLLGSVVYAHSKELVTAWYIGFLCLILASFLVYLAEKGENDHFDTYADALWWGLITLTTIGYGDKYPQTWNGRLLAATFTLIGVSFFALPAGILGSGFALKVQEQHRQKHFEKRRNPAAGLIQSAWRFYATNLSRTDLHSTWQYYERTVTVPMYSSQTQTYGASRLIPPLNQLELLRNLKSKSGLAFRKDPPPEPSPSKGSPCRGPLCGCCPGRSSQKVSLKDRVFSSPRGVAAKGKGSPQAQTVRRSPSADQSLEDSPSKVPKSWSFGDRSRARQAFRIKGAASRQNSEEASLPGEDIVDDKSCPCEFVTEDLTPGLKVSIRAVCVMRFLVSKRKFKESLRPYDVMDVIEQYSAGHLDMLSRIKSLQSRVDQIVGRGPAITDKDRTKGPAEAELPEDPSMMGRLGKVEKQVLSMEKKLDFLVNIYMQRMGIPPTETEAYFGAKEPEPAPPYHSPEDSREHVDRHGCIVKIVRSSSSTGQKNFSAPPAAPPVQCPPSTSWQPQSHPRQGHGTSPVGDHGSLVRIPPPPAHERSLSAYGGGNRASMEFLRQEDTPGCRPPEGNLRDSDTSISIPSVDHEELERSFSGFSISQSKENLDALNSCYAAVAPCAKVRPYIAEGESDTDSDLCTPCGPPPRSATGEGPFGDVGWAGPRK
Human Kv7.2/7.3, sequence (O43525 whole entry): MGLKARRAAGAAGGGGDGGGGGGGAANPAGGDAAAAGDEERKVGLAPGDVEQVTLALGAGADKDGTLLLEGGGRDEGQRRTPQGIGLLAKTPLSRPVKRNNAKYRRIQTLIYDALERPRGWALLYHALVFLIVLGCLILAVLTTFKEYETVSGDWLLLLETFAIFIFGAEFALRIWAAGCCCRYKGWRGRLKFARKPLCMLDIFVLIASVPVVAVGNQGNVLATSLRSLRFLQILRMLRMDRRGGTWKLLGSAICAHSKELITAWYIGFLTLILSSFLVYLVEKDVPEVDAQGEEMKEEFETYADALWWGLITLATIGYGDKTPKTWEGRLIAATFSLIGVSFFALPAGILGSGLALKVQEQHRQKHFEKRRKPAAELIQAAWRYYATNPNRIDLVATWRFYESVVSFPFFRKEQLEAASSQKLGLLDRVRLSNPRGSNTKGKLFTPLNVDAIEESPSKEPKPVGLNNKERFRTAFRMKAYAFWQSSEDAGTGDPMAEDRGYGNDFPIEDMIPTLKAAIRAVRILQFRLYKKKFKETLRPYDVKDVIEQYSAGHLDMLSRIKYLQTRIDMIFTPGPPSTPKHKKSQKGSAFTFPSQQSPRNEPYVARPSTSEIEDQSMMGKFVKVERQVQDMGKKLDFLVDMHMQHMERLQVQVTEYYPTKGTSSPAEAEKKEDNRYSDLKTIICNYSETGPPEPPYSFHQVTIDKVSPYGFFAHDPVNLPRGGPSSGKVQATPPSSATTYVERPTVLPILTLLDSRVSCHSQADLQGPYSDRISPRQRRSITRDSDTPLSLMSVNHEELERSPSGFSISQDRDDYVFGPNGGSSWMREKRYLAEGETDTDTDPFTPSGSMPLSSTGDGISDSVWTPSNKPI
Procedure: Human Kv7.2/7.3 cells are harvested, counted and seeded in black, clear-bottomed 96 well plates at a density of 50,000 cells per well in 100 μl volume and incubated overnight. The following day, media was removed and 40 μl of loading buffer (4.895 mL HBSS:HEPES, 50 μL probenecid, 50 μL power load, 5 μl FluxOR reagent) was added and incubated at room temperature for 30 minutes. After incubation loading buffer was removed and 40 μl of assay buffer added (4.45 ml HBSS:HEPES, 500 μl FluxOR assay buffer and 50 μL probenecid) and incubated for 10 minutes.

MES induced seizures = assay: MES assay in CF-1 mice, Compound 28 IP dose response; assay type: in vivo, CF-1 mouse; conditions: for Animals protected from MES induced seizures: 30 minutes after administration

## CCOC(=O)Nc1ccc(NCc2ccc(F)cc2)cc1NC(=O)OC(C)OC(=O)C(C)C (centres unmarked) [Compound 3]
[1]; mouse
  Time by which prodrug is degraded in plasma: ≤ 1 h
[1]; rat
  Time by which prodrug is degraded in plasma: ≤ 1 h
[2]
  Colour of stability solution: clear and colorless through Day 18
  Degradation / conversion to ezogabine in solution: converts to ezogabine under acidic conditions but does not in organic solvent
[2]; 0.1N HCl, room temp., normal light, 433 h
  Ezogabine Area (formed from the prodrug): 400 mAU
[2]; 1N HCl, room temp., normal light, 97 h
  Ezogabine Area (formed from the prodrug): 2881 mAU
[2]; Acetonitrile, room temp., normal light, 435 h
  Ezogabine Area (formed from the prodrug): 51 mAU
[2]; Ethanol, room temp., normal light, 390 h
  Ezogabine Area (formed from the prodrug): 43 mAU
[2]; Methanol, room temp., normal light, 435 h
  Ezogabine Area (formed from the prodrug): 41 mAU
[2]; 9 days
  Colour of stability solution: turned a golden yellow by Day 9
[2]; 390 h
  % Remaining: 97.6%
[2]; buffer, 97 h
  % Remaining: 1.78%
[2]; buffer, 433 h
  % Remaining: 11.8%
[3]; oral 5 mg/kg
  Reversal of mechanical hypersensitivity vs baseline: the 95% confidence intervals did not cross the baseline mean
[3]; oral 40 mg/kg
  Gram force to paw lift (von Frey): increased the gram force to paw lift significantly
[3]; oral 40 mg/kg, p=0.0003
  Reduction of latency of neuropathic ipsilateral paw withdrawal (pin prick): 9.2 s
[4]
  AUClast/D: 0.0136 ng·h/mL/mg/kg
  Cmax/D: 0.0273 ng/mL/mg/kg
[4]; male, rat, in vivo
  Total exposure of ezogabine relative to ezogabine on a given molar dose: > 2 fold
[5]; 0.1 N HCl
  Stability in solvent: appears to be stable over 4 days
[5]; 0.1N Na2HPO4, H2O, 0.1N NaCl, Day 1 to Day 3
  Change of solubility over time: increases in solubility over time
[5]; 1 N HCl
  Stability in solvent: not stable in 1 N HCl over 7 days
[5]; ethanol and methanol
  Stability in solvent: soluble and stable through 3 days in ethanol and methanol, while on Day 4 it exhibits degradation
[6]; 0.1N HCl
  Solubility: <1000 µg/mL
[6]; 0.1 N Na2HPO4, aqueous buffer, thermodynamic from solid, read-out: Solubility (freely soluble at tested concentration)
  Solubility: < 1000 µg/mL
[6]; 0.1N NaCl
  Solubility: <1000 µg/mL
[6]; 0.1 N NaCl, saline or isotonic, thermodynamic from solid, read-out: Solubility (freely soluble at tested concentration)
  Solubility: < 1000 µg/mL
[6]; 0.1N NaOH
  Solubility: <1000 µg/mL
[6]; 0.1 N NaOH, aqueous buffer, thermodynamic from solid, read-out: Solubility (freely soluble at tested concentration)
  Solubility: < 1000 µg/mL
[6]; 0.1 Na2HPO4
  Solubility: <1000 µg/mL
[6]; 1N HCl
  Solubility: >1000 µg/mL
[6]; Ethanol
  Solubility: >75000 µg/mL
[6]; Methanol
  Solubility: >75000 µg/mL
[6]; Water
  Solubility: <1000 µg/mL
[6]; aqueous buffer, thermodynamic from solid, 1N HCl, read-out: Solubility (soluble at tested concentration)
  Solubility: > 1000 µg/mL
[6]; ethanol, organic solvent or mixture, thermodynamic from solid, read-out: Solubility (freely soluble at tested concentration)
  Solubility: > 75000 µg/mL
[6]; methanol, organic solvent or mixture, thermodynamic from solid, read-out: Solubility (freely soluble at tested concentration)
  Solubility: > 75000 µg/mL
[6]; simulated gastric fluid, thermodynamic from solid, 0.1N HCl, read-out: Solubility (freely soluble at tested concentration)
  Solubility: < 1000 µg/mL
[6]; water, thermodynamic from solid, read-out: Solubility (freely soluble at tested concentration)
  Solubility: < 1000 µg/mL
[7]
  Exposure of the prodrug itself in systemic circulation: very little exposure
Human Kv7.2/7.3
  Activity against the primary target of Kv7.2/7.3: inactive

## CCOC(=O)Nc1ccc(NCc2ccc(F)cc2)cc1NC(=O)C[C@@H](CN)CC(C)C [Compound 28]
[2]; 0.1N HCl, room temp., normal light, 440 h
  Ezogabine Area (formed from the prodrug): 0 mAU
[2]; 1N HCl, room temp., normal light, 440 h
  Ezogabine Area (formed from the prodrug): 568 mAU
[2]; 2N HCl 37C, 440 h
  Ezogabine Area (formed from the prodrug): 3593 mAU
[2]; 2N HCl, room temp., normal light, 440 h
  Ezogabine Area (formed from the prodrug): 1462 mAU
[2]; Acetonitrile, room temp., normal light, 440 h
  Ezogabine Area (formed from the prodrug): 248 mAU
[2]; Methanol, room temp., normal light, 440 h
  Ezogabine Area (formed from the prodrug): 0 mAU
[2]
  Degradation / conversion to ezogabine in solution: exhibits degradation to ezogabine with increasing strength of the acidic solution
MES induced seizures; IP 12 mg/kg
  Animals protected from MES induced seizures: 1 of 9
MES induced seizures; IP 24 mg/kg
  Animals protected from MES induced seizures: 3 of 9
MES induced seizures; IP 1.5, 3, 6, 12 and 24 mg/kg
  Protection against MES induced seizures: None of the doses showed complete protection
[4]
  AUClast/D: 83.0 ng·h/mL/mg/kg
  Cmax/D: 9.31 ng/mL/mg/kg
